Assay results published in ChEMBL document CHEMBL3769377, “A synthesis, in silico, in vitro and in vivo study of thieno[2,3-b]pyridine anticancer analogues” (Medchemcomm, 2015).

What was measured:
[1] = target: Serine/threonine-protein kinase PAK 4 (Homo sapiens) (UniProt O96013); assay: Inhibition of human recombinant PAK4 assessed as residual activity at 10 uM after 1 hr by qPCR analysis relative to control
[2] = target: Tyrosine-protein kinase receptor UFO (Homo sapiens) (UniProt P30530); assay: Inhibition of human recombinant AXL assessed as residual activity at 10 uM after 1 hr by qPCR analysis relative to control
[3] = target: Serine/threonine-protein kinase PAK 1 (Homo sapiens) (UniProt Q13153); assay: Inhibition of human recombinant PAK1 assessed as residual activity at 10 uM after 1 hr by qPCR analysis relative to control
Serine/threonine-protein kinase PAK 1 (Homo sapiens), sequence (Q13153 whole entry): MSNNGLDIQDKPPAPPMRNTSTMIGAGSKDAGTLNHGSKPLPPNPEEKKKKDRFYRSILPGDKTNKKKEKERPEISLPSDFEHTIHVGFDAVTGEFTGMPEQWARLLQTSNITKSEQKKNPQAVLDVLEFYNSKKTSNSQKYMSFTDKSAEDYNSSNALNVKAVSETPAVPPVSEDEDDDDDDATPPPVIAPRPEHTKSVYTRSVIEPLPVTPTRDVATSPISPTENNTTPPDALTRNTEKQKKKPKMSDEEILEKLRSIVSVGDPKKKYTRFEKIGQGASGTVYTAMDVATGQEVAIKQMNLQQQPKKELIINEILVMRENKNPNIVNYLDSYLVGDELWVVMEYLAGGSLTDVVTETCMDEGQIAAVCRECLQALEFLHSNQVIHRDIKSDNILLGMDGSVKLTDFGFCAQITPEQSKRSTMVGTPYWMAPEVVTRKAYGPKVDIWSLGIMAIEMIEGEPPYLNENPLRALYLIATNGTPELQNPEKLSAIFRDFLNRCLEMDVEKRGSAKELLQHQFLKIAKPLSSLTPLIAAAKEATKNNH

[4] = target: Fibroblast growth factor receptor 2 (Homo sapiens) (UniProt P21802); assay: Inhibition of human recombinant FGFR2 assessed as residual activity at 10 uM after 1 hr by qPCR analysis relative to control
Fibroblast growth factor receptor 2 (Homo sapiens), sequence (P21802 22-821 limits assumed): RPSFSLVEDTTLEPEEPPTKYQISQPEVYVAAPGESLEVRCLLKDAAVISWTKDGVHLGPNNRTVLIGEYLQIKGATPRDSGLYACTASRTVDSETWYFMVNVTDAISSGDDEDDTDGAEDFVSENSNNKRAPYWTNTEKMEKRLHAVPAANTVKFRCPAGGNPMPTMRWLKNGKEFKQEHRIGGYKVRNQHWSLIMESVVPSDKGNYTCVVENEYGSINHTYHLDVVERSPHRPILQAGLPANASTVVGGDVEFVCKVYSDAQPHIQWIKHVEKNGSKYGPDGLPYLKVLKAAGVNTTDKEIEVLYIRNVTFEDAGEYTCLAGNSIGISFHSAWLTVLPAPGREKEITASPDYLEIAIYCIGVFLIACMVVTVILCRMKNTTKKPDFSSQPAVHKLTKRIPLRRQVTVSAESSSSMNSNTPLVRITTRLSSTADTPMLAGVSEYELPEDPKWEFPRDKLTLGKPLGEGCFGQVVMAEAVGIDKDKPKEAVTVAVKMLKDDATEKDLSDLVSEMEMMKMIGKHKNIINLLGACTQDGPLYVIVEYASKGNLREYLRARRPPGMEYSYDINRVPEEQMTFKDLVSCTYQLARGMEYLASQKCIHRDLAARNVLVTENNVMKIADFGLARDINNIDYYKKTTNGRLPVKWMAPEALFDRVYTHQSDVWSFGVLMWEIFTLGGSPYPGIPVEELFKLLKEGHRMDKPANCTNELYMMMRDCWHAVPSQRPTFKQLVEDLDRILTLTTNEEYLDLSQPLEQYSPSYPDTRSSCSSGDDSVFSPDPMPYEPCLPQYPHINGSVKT

[5] = target: Serine/threonine-protein kinase B-raf (Homo sapiens) (UniProt P15056); assay: Inhibition of human recombinant BRAF assessed as residual activity at 10 uM after 1 hr by qPCR analysis relative to control
[6] = target: Receptor-type tyrosine-protein kinase FLT3 (Homo sapiens) (UniProt P36888); assay: Inhibition of human recombinant FLT3 assessed as residual activity at 10 uM after 1 hr by qPCR analysis relative to control
[7] = target: Serine/threonine-protein kinase pim-2 (Homo sapiens) (UniProt Q9P1W9); assay: Inhibition of human recombinant PIM2 assessed as residual activity at 10 uM after 1 hr by qPCR analysis relative to control
[8] = target: Serine/threonine-protein kinase pim-1 (Homo sapiens) (UniProt P11309); assay: Inhibition of human recombinant PIM1 assessed as residual activity at 10 uM after 1 hr by qPCR analysis relative to control
[9] = target: Cyclin-dependent kinase 16 (Homo sapiens) (UniProt Q00536); assay: Inhibition of human recombinant PCTK1 assessed as residual activity at 10 uM after 1 hr by qPCR analysis relative to control
[10] = target: Angiopoietin-1 receptor (Homo sapiens) (UniProt Q02763); assay: Inhibition of human recombinant TIE2 assessed as residual activity at 10 uM after 1 hr by qPCR analysis relative to control
Angiopoietin-1 receptor (Homo sapiens), sequence (Q02763 whole entry): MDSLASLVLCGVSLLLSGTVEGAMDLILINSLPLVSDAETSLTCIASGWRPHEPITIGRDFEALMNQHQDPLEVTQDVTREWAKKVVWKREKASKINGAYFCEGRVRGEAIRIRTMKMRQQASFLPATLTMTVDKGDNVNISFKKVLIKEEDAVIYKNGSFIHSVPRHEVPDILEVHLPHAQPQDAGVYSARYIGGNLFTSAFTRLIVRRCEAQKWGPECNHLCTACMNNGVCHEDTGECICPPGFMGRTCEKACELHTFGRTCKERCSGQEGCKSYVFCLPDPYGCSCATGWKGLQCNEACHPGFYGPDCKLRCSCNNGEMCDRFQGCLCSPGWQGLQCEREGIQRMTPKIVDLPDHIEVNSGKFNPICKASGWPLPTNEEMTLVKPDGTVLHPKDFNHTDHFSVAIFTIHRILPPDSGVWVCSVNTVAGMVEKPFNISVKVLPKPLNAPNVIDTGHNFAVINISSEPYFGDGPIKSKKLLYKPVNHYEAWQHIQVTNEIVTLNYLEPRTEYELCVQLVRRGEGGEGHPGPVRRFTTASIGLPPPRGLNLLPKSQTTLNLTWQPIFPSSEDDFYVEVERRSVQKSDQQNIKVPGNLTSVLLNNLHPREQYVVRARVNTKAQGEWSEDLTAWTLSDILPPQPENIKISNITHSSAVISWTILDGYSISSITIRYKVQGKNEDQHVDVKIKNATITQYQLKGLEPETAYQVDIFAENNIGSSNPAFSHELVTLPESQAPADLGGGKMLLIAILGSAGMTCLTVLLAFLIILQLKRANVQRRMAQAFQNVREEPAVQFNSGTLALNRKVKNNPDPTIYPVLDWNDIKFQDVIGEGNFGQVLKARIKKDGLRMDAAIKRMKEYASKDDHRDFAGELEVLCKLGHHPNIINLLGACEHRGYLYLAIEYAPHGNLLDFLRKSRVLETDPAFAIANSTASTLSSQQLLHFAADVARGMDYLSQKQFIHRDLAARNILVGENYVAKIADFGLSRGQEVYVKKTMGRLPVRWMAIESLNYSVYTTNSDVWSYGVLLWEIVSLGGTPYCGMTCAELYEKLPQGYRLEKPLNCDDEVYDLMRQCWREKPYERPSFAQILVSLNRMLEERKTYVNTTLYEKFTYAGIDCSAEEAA

[11] = target: Serine/threonine-protein kinase ULK2 (Homo sapiens) (UniProt Q8IYT8); assay: Inhibition of human recombinant ULK2 assessed as residual activity at 10 uM after 1 hr by qPCR analysis relative to control
[12] = tested on: Epidermal growth factor receptor (Homo sapiens), P00533 [L858R]; assay: Inhibition of human recombinant EGFR L858R mutant assessed as residual activity at 10 uM after 1 hr by qPCR analysis relative to control; assay type: protein assay
[13] = target: Tyrosine-protein kinase JAK3 (Homo sapiens) (UniProt P52333); assay: Inhibition of human recombinant JAK3 (JH1 domain-catalytic) assessed as residual activity at 10 uM after 1 hr by qPCR analysis relative to control
[14] = target: Serine/threonine-protein kinase RIO2 (Homo sapiens) (UniProt Q9BVS4); assay: Inhibition of human recombinant RIOK2 assessed as residual activity at 10 uM after 1 hr by qPCR analysis relative to control
Serine/threonine-protein kinase RIO2 (Homo sapiens), sequence (Q9BVS4 whole entry, looked up): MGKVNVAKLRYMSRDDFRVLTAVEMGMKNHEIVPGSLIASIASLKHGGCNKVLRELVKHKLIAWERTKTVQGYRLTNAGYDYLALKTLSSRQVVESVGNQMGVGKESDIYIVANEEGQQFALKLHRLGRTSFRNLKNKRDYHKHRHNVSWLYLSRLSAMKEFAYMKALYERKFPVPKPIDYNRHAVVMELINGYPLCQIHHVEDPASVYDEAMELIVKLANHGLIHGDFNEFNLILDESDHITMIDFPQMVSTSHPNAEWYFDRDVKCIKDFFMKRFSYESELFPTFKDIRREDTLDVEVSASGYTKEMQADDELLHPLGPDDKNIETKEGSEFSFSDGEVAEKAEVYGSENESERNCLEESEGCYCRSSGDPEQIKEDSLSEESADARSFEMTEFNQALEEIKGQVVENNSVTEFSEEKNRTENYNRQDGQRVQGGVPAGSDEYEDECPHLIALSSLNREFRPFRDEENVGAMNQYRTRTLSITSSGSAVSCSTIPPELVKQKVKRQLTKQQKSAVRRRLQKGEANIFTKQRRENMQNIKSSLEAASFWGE

[15] = tested on: Mast/stem cell growth factor receptor Kit (Homo sapiens), P10721 [D816V]; assay: Inhibition of human recombinant KIT D816V mutant assessed as residual activity at 10 uM after 1 hr by qPCR analysis relative to control
[16] = target: NUAK family SNF1-like kinase 2 (Homo sapiens) (UniProt Q9H093); assay: Inhibition of human recombinant SNARK assessed as residual activity at 10 uM after 1 hr by qPCR analysis relative to control
[17] = target: RAC-alpha serine/threonine-protein kinase (Homo sapiens) (UniProt P31749); assay: Inhibition of human recombinant AKT1 assessed as residual activity at 10 uM after 1 hr by qPCR analysis relative to control
Mus musculus = assay: Toxicity in athymic nude/beige mouse xenografted with human 786-O cells assessed as mild spasm at 0.16 mg/kg, ip qd after 24 days; assay type: organism-based, 786-0; settings: in vivo, 576 h
[18] = target: Tyrosine-protein kinase ZAP-70 (Homo sapiens) (UniProt P43403); assay: Inhibition of human recombinant ZAP70 assessed as residual activity at 10 uM after 1 hr by qPCR analysis relative to control
Tyrosine-protein kinase ZAP-70 (Homo sapiens), sequence (P43403 whole entry): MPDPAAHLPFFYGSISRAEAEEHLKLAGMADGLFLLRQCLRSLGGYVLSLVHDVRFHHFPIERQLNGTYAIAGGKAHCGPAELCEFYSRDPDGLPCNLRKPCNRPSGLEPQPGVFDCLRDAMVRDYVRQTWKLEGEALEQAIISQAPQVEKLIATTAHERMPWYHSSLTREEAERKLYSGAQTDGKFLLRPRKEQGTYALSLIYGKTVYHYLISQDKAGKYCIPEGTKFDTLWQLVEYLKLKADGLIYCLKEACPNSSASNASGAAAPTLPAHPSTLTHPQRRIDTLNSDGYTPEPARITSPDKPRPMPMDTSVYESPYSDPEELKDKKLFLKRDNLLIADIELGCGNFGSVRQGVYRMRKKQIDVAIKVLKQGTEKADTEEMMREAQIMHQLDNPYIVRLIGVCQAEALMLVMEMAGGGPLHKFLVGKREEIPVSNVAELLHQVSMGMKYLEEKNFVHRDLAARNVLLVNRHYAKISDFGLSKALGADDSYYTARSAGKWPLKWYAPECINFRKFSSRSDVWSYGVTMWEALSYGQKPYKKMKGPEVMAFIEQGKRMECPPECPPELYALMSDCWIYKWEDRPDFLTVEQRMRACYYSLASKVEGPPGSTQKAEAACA

[19] = tested on: Tyrosine-protein kinase ABL1 (Homo sapiens), P00519 [E255K]; assay: Inhibition of human recombinant phosphorylated ABL1 E255K mutant assessed as residual activity at 10 uM after 1 hr by qPCR analysis relative to control
[20] = target: Dual specificity tyrosine-phosphorylation-regulated kinase 1B (Homo sapiens) (UniProt Q9Y463); assay: Inhibition of human recombinant DYRK1B assessed as residual activity at 10 uM after 1 hr by qPCR analysis relative to control
[21] = target: Non-receptor tyrosine-protein kinase TYK2 (Homo sapiens) (UniProt P29597); assay: Inhibition of human recombinant TYK2 (JH1 domain-catalytic) assessed as residual activity at 10 uM after 1 hr by qPCR analysis relative to control
[22] = target: Casein kinase I isoform gamma-2 (Homo sapiens) (UniProt P78368); assay: Inhibition of human recombinant CSNK1G2 assessed as residual activity at 10 uM after 1 hr by qPCR analysis relative to control
[23] = target: Phosphatidylinositol 4,5-bisphosphate 3-kinase catalytic subunit alpha isoform (Homo sapiens) (UniProt P42336); assay: Inhibition of human recombinant PIK3CA assessed as residual activity at 10 uM after 1 hr by qPCR analysis relative to control
Phosphatidylinositol 4,5-bisphosphate 3-kinase catalytic subunit alpha isoform (Homo sapiens), sequence (P42336 whole entry, canonical isoform): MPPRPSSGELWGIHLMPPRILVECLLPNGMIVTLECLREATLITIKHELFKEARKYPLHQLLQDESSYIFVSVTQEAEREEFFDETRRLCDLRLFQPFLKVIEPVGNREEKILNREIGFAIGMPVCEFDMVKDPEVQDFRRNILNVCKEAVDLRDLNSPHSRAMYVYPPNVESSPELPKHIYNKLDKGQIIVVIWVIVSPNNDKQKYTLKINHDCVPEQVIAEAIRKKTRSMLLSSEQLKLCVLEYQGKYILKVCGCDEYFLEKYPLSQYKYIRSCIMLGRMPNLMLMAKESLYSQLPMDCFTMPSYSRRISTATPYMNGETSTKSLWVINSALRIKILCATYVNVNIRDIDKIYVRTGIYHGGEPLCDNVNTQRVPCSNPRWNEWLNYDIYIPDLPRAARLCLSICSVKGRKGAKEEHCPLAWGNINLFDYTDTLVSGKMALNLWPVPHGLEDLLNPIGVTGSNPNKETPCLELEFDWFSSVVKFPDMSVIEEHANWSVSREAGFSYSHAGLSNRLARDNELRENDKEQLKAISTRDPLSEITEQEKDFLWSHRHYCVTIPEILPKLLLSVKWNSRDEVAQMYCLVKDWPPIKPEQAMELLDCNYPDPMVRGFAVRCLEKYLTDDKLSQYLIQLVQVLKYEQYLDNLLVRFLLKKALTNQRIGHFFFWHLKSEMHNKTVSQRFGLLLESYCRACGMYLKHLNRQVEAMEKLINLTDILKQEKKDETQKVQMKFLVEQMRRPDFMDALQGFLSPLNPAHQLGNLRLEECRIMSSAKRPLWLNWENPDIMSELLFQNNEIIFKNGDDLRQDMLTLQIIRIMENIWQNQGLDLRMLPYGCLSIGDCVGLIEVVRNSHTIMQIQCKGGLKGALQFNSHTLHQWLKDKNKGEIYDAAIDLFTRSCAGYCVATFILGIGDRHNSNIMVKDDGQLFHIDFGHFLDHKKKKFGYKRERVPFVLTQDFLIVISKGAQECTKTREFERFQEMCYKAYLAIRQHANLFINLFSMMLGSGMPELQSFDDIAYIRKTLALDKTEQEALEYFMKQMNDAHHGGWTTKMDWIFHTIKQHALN

[24] = target: Serine/threonine-protein kinase 32C (Homo sapiens) (UniProt Q86UX6); assay: Inhibition of human recombinant YANK3 assessed as residual activity at 10 uM after 1 hr by qPCR analysis relative to control
[25] = target: Mast/stem cell growth factor receptor Kit (Homo sapiens) (UniProt P10721); assay: Inhibition of human recombinant KIT assessed as residual activity at 10 uM after 1 hr by qPCR analysis relative to control
[26] = target: Serine/threonine-protein kinase Chk1 (Homo sapiens) (UniProt O14757); assay: Inhibition of human recombinant CHEK1 assessed as residual activity at 10 uM after 1 hr by qPCR analysis relative to control
[27] = target: Ephrin type-A receptor 2 (Homo sapiens) (UniProt P29317); assay: Inhibition of human recombinant EPHA2 assessed as residual activity at 10 uM after 1 hr by qPCR analysis relative to control
[28] = target: Atypical kinase COQ8A, mitochondrial (Homo sapiens) (UniProt Q8NI60); assay: Inhibition of human recombinant ADCK3 assessed as residual activity at 10 uM after 1 hr by qPCR analysis relative to control
[29] = target: Aurora kinase B (Homo sapiens) (UniProt Q96GD4); assay: Inhibition of human recombinant AURKB assessed as residual activity at 10 uM after 1 hr by qPCR analysis relative to control
Aurora kinase B (Homo sapiens), sequence (Q96GD4 whole entry): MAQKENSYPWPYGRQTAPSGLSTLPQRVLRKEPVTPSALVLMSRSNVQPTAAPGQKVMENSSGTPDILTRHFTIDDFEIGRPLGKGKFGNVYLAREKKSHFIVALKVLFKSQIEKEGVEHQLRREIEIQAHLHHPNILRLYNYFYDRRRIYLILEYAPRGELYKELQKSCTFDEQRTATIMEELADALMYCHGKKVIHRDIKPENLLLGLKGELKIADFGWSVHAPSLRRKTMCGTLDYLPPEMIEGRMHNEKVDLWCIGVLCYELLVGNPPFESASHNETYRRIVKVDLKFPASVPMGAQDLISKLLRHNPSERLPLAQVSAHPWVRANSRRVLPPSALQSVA

Question: What does the source list for `Cc1c(Cl)cccc1NC(=O)c1sc2nc3c(cc2c1N)C(=O)CC3`?
Answer: Activity [1]: 85%; Activity [2]: 100%; Activity [3]: 87%; Activity [4]: 100%; Activity [5]: 96%; Activity [6]: 100%; Activity [7]: 80%; Activity [8]: 73%; Activity [9]: 100%; Activity [10]: 100%; Activity [11]: 97%; Activity [12]: 92%; Activity [13]: 100%; Activity [14]: 43%; Activity [15]: 93%; Activity [16]: 100%; Activity [17]: 90%; Activity (Mus musculus): Toxic; Activity [18]: 95%; Activity [19]: 100%; Activity [20]: 57%; Activity [21]: 94%; Activity [22]: 97%; Activity [23]: 100%; Activity [24]: 62%; Activity [25]: 95%; Activity [26]: 94%; Activity [27]: 100%; Activity [28]: 96%; Activity [29]: 92%
